Data on 1 molecule can be found in patent US7608408B2, “Methods of identifying compounds that inhibit Notch cleavage” (Bristol-Myers Squibb Company, priority 2005, dated 2009).

As usually defined, the IC50 is the concentration that inhibits the measured activity by half. Broadly, the EC50 is the midpoint of the concentration-response curve. Low readings indicate an effect from little substance, high ones a need for much substance.

Common to all, as to type: cell-based
Assay [1] deals with HT29-L23 cells. As to the kind of experiment: Mucin-2 induction in HT29-L23 cells. To be noted: read-out: HT29-L23 IC50 (mucin-2 induction). The protocol: HT29 cells were seeded in 4 or 8 well slide chambers. 24 hours later, cells were treated for 72 hours in serum-free medium with either Compound Z (1 uM in DMSO) or DMSO at a final DMSO concentration of 0.1%. Treated cells were washed twice with PBS, fixed with 4% paraformaldehyde (10 min, RT) followed by methanol (2 min, −20° C.). Fixed cells were washed twice with PBS, incubated with PBS+0.5% TritonX100 for 10 min., washed twice with PBS and blocked for 2 hr in PBS containing 0.1% TritonX100, 2% BSA and 5% dry milk. Cells were stained with primary antibody against mucin-2, mucin-5AC, mucin-1, mucin-3, or mucin-6 by adding primary antibody in blocking buffer and incubating 1 hr, RT. […]
HT29 subclones were generated through limiting dilution. […] Mucin-2 positive cells were measured by FACS analysis (FIG. 2). […] Images were acquired on an ArrayScan™ system and analyzed for mucin-2 expression with the Target activation application (FIGS. 3A and 3B).
(§1) HeLa cells were transiently transfected with Notch-1 ΔE and the CBF1 luciferase reporter, and inhibition of Notch signaling by compounds known to inhibit γ-secretase was determined. Induction of mucin-2 in HT29-L23 cells was determined as in Example 1 for the same set of γ-secretase inhibitory compounds.

The subject of assay [2] is Notch signaling (Notch-1 ΔE / CBF1 luciferase reporter). Description: Inhibition of Notch signaling in HeLa cells transiently transfected with Notch-1 ΔE and CBF1 luciferase reporter. To be noted: Homo sapiens. The protocol: as §1
In general terms: A reporter such as luciferase makes a cellular process visible.

A further assay concerns Notch. Description: Notch cleavage assay. To be noted: n=252. From the text: (§2) Any method for determining the ability of a compound to inhibit cleavage of γ-secretase substrates known in the art may be employed. For example, methods for assessing the ability of a compound to cleave APP are known. The ability of a compound to cleave APP may be assessed, for example, by measuring or detecting Aβ peptides (e.g., Aβ1-40, Aβ1-42; see, e.g., U.S. Published Application No. 2003/0215896).

In the next assay the test system is APP. As to the kind of experiment: APP cleavage assay (Aβ peptides). Conditions: n=166.
Text: as §2

In the next assay the test system is HT29 cells. Description: Mucin immunostaining in HT29 cells by microscopy. Conditions: 1 uM, 72 hours, serum-free medium. As to the method: HT29 cells were seeded in 4 or 8 well slide chambers. 24 hours later, cells were treated for 72 hours in serum-free medium with either Compound Z (1 uM in DMSO) or DMSO at a final DMSO concentration of 0.1%. Treated cells were washed twice with PBS, fixed with 4% paraformaldehyde (10 min, RT) followed by methanol (2 min, −20° C.). Fixed cells were washed twice with PBS, incubated with PBS+0.5% TritonX100 for 10 min., washed twice with PBS and blocked for 2 hr in PBS containing 0.1% TritonX100, 2% BSA and 5% dry milk. Cells were stained with primary antibody against mucin-2, mucin-5AC, mucin-1, mucin-3, or mucin-6 by adding primary antibody in blocking buffer and incubating 1 hr, RT. Cells were washed 3× with PBS+0.1% TritonX100 and stained with an appropriate species-specific PE-, TRITC- or FITC-labeled secondary antibody for 30 min., RT. Cells were visualized through microscopy. γ-secretase inhibitor Compound Z induced mucin-2 and mucin-5AC (FIGS. 1A and 1B) but not mucin-1, mucin-3, or mucin-6 in HT29 cells.

Assay [3] deals with HT29-L23 cells. Description: Real time PCR of Notch pathway genes in HT29-L23 cells. To be noted: relative to DMSO, normalized to PPIA. As to the method: HT29-L23 cells were treated with Compound Z or DMSO as described in Example 1. mRNA were isolated at indicated time points (FIGS. 5A-E) and analyzed by real time PCR with indicated Taqman probes (Applied Biosystems, Foster City, Calif.). Results were normalized relative to the amount of cyclophilin A (PPIA) mRNA for the same sample and were plotted as fold changes relative to DMSO treated sample at time zero. Statistical significance was determined by one-way ANOVA followed by Bonferroni's multiple comparison test performed within groups.
Background: Real-time PCR tracks product formation cycle by cycle.

Assay [4] relates to HT29-L23 cells. As to the kind of experiment: Mucin-2 induction in HT29-L23 cells transfected with NICD, AICD or control plasmid (High Content Screening). Conditions: 1 uM. As to the method: HT29-L23 cells were transiently transfected with control plasmid (pcDNA-DsRed) or Myc epitope tagged Notch intracellular domain (NICD) (activated Notch-1) or APP intracellular domain (AICD) (activated APP). Cells were treated with Compound Z (1 uM in DMSO) or vehicle, and protein expression was analyzed by High Content Screening as described in Example 1. After staining with Mucin-2 and Myc antibodies, the transfected subpopulation of cells (Myc positive) were used for final analysis. Cells without DsRed expression were designated as control. Statistical significance was determined by one-way ANOVA followed by Bonferroni's multiple comparison test performed within and between groups.

Take `C[C@H](NC(=O)[C@@H](O)c1cc(F)cc(F)c1)C(=O)N[C@@H]1C(=O)N(C)N=Cc2ccccc21` [Compound 1]: the IC50 in the assay with HT29-L23 cells [1] was found to be 11.9 nM. This molecule also displayed an IC50 in assay [2] of 4.59 nM. The molecule further yielded an EC50 with Notch of 2.1 nM. In addition, a half-maximal response in the assay with APP (EC50) required 0.81 nM. In addition, in the assay on HT29 cells, the mucin-1 induction result is reported as “not”, the mucin-2 induction result was “induced”, the mucin-3 induction result is “not” and the mucin-5AC induction entry is “induced”. Also, the mucin-6 induction entry in the assay on HT29 cells is reported as “not”. For the same molecule, in the assay with HT29-L23 cells [3], the “Delta-1 mRNA” value is “induced”, the “HES-1 mRNA” value is recorded as “downregulated”, the “Jagged-2 mRNA” value is listed as “induced” and the “Math-1 mRNA” value is given as “induced”. Besides, the “Mucin-2 mRNA” value in the assay with HT29-L23 cells [3] was “induced”. In addition, the “number of cells producing mucin-2” value with HT29-L23 cells [4] (AICD (activated APP) transfected group) is reported as “increased”. For the same molecule, the “number of cells producing mucin-2” value with HT29-L23 cells [4] (Control group) was “increased”.
